Consider two compounds from publication PMC5987406, “Antioxidant, anticholinesterase and antifatigue effects of Trichilia catigua (catuaba)” (BMC Complementary and Alternative Medicine, 2018).

The structures appear in SMILES notation.

Assay [1] can be described thus: DPPH assay (radical scavenging). The conditions noted are these: 95% confidence interval in parenthesis; linear regression, mean of 3–4 assays.
Procedure: The test was based on the protocol of Duarte-Almeida et al. [25], with some modifications. An ethanolic solution of 2,2-diphenyl-1-picryl hydrazyl (DPPH) (Sigma, St. Louis, MO, USA) was prepared in order to produce an absorbance between 0.8 and 0.99 at 517 nm. One hundred microliters of each extract diluted in ethanol (Synth, Diadema, Brazil) at initial concentrations of 0.004, 0.01, 0.04, 0.1, 0.4 and 1.0 mg/mL were pipetted in a cuvette and after the addition of 900 μL of DPPH the cuvette was placed in a spectrophotometer (PG Instruments LTD, Leicestershire, United Kingdom) and read during 2 min at 517 nm. Ethanol (vehicle) was used as control and rutin (Acros Organics, New Jersey, USA) as positive control. The percentage of DPPH scavenger (S) was calculated by the formula: SDPPH = [(Ac - As)/Ac] × 100, where Ac = absorbance for the control and As = absorbance for the sample.
The statistical analysis was carried out using the Statistica® and Graph Pad Prism® software. The EC50 for DPPH and IC50 for acetylcholinesterase were calculated by linear regression using the mean of scavenge or inhibition for each concentration of the tested drugs. […] We adopted a p value of 0.05 as statistically significant.
Assay [2] concerns mice. The assay is described as follows: Classical fear conditioning, scopolamine-induced amnesia. The assay is classed as in vivo. Conditions: scopolamine 2 mg/kg i.p., not statistically significant. The method, then: Male albino Swiss mice (30-50 g) and male Wistar rats (300-450 g), 3–4 months old, from our vivarium (Department of Psychobiology, UNIFESP) were housed in rooms with 12 h light-dark circle, controlled temperature (21 ± 2 °C), with filtered tap water and food (Nuvilab, Brazil) ad libitum, except during the experiments. The animals were kept in polypropylene cages (4–5 animals each) with pine shavings as bedding material. […] The animals were euthanized in CO2 chamber or by decapitation (in the case of stress by immobilization test). The protocols followed the International Guiding Principles for Biomedical Research Involving Animals and were approved by UNIFESP ethics committee (Comissão de Ética no Uso de Animais, from Universidade Federal de São Paulo, São Paulo, Brazil) - protocol #0752/07.
On the training day, the animals (except the negative control group) received scopolamine (2 mg/kg, i.p. - Sigma, St. Louis, MO, USA) in 0.9% saline 30 min after the extract treatment and 30 min later were placed individually in the context cage dotted with some visual cues. After 2 min of habituation, three electrical shocks (0.3 mA, 1 s duration and interval of 10s) were delivered to the paws of the animal (adapted from Soeiro et al.). […]

As to `C[C@@H]1O[C@@H](OC[C@H]2O[C@@H](Oc3c(-c4ccc(O)c(O)c4)oc4cc(O)cc(O)c4c3=O)[C@H](O)[C@@H](O)[C@@H]2O)[C@H](O)[C@H](O)[C@H]1O` [Rutin, rutin], in assay [1], the “DPPH scavenging EC50” value is recorded as 44 (9–216) μg/mL.

Take `CN1[C@@H]2C[C@@H](OC(=O)[C@H](CO)c3ccccc3)C[C@H]1[C@@H]1O[C@@H]12` [scopolamine]: in assay [2], the “Reduction of freezing time compared with control mice that did not receive scopolamine” value stood at 40.9%.
